Laboratory results as given in patent US20120022142A1, “RNA Interference Mediated Inhibition of Signal Transducer and Activator of Transcription 1 (STAT1) Gene Expression Using Short Interfering Nucleic Acid (siNA)” (Merck Sharp & Dohme Corp., priority 2009, published 2012).
[invAb] = inverted abasic unit; d = 2'-deoxy (DNA); m = 2'-O-methyl; r = 2'-OH (RNA); f = 2'-fluoro

Experiments:
[1] = tested on: STAT1 human mRNA; test: Initial screen of siNAs: STAT1 mRNA knock-down in A549 cells (96-well transfection, Taqman RT-PCR); type: cell-based; conditions: 10 nM siNA, 24 hrs, normalized against GAPDH, average of 2 experiments
Procedure: A549 (human; ATCC cat# CCL-185): Cells were cultured at 37° C. in the presence of 5% CO2 and grown in Ham's F12K medium with 2 mM L-glutamine adjusted to contain 1.5 g/L sodium bicarbonate and supplemented with fetal bovine serum at a final concentration of 10% and 100 μg/mL of streptomycin and 100 U/mL penicillin.
(§1) Cells were plated in all wells of a tissue-culture treated, 96-well plate at a final count of 5000 cells/well in 100 μL of the appropriate culture media. The cells were cultured for 24 hours after plating at 37° C. in the presence of 5% CO2.
(§2) After 24 hours, complexes containing siNA and RNAiMax were created as follows: A solution of RNAiMax diluted 33-fold in OPTI-MEM was prepared. In parallel, solutions of the siNAs for testing were prepared to a final concentration of 120 nM in OPTI-MEM. After incubation of RNAiMax/OPTI-MEM solution at room temperature for 5 min, an equal volume of the siNA solution and the RNAiMax solution were added together for each of the siNAs.
(§3) This solution was incubated at room temperature for 20 minutes. After incubation, 20 uL of the solution was added to each of the relevant wells. The final concentration of siNA in each well was 10 nM and the final volume of RNAiMax in each well was 0.3 ul.
(§4) The time of incubation with the RNAiMax-siNA complexes was 24 hours and there was no change in media between transfection and harvesting, unless otherwise indicated.
(§5) RNA was extracted from a 96-well plate using the TaqMan® Gene Expression Cells-to-CT™ Kit (Cat# 4399002) with a modified protocol. Briefly, a 60 uL (1 plate) or 110 uL (2 plates) of the Lysis Solution with DNase I was dispensed into each well of the Lysis Buffer Plate (twin.tec full skirt plate). The lysis buffer and stop plates were stored at 4° C. until the cells were washed.
(§6) The culture medium was aspirated and discarded from the wells of the culture plate. 50 uL of chilled DPBS was added to each well, then aspirated and discarded. The lysis was performed automatically using a BioMek FX instrument and method. After the Biomek method was completed, the lysis plate was incubated for 2 min at room temperature. The lysis plate can be stored for 2 hours at 4° C., or at −20° C. or −80° C. for two months.
(§7) Each well of the reverse transcription plate required 10 uL of 2× reverse transcriptase Buffer, 1 uL of 20× reverse transcription enzyme and 2 uL of nuclease-free water. The reverse transcription master mix was prepared by mixing 2× reverse transcription buffer, 20× reverse transcription enzyme mix, and nuclease-free water. 13 uL of the reverse transcription master mix was dispensed into each well of the reverse transcription plate (semi-skirted). A separate reverse transcription plate was prepared for each cell plate. The plate was loaded onto a Biomek NX or Biomek FX Dual-96 and the Biomek method was run. The program is programmed to automatically added 7 uL of lysate from the cell lysis procedure described above into each well of the reverse transcription plate. The plate is sealed and spun on a centrifuge (1000 rpm for 30 seconds) to settle the contents to the bottom of the reverse transcription plate. The plate is placed in a thermocycler at 37° C. for 60 min, 95° C. for 5 min, and 4° C. until the plate is removed from the thermocycler. Upon removal, if not used immediately, the plate was frozen at −20° C.
(§8) A series of probes and primers were used to detect the various mRNA transcripts of the genes of β-Actin (human cell line only), and of STAT1 and GAPDH in mouse and human cell lines. All Taqman probes and primers for the experiments here-in described were supplied as pre-validated sets by Applied Biosystems, Inc. (see Table 2).
The assays were performed on an ABI 7900 instrument, according to the manufacturer's instructions.
Within each experiment, the baseline was set in the exponential phase of the amplification curve, and based on the intersection point of the baselines with the amplification curve, a Ct value was assigned by the instrument. […]

[2] = tested on: STAT1 mouse mRNA; test: Initial screen of siNAs: STAT1 mRNA knock-down in NIH 3T3 cells (96-well transfection, Taqman RT-PCR); type: cell-based; conditions: 10 nM siNA, 24 hrs, normalized against GAPDH, average of 2 experiments
Procedure: NIH 3T3 (mouse; ATCC cat# CRL-1658): Cells were cultured at 37° C. in the presence of 5% CO2 and grown in Dulbecco's modified Eagle's medium (DMEM) with 4 mM L-glutamine adjusted to contain 1.5 g/L sodium bicarbonate and 4.5 g/L glucose and supplemented with fetal bovine serum at a final concentration of 10%, 100 μg/mL of streptomycin, and 100 U/mL penicillin.
as §1, §2, §3, §4, §5, §6, §7, §8
The assays were performed on an ABI 7900 instrument, according to the manufacturer's instructions. […]

Substance	% KD Human [1]	% KD Mouse [2]
25360-DC: STAT1 siNA duplex, human target site 1793; modified strands SEQ ID NO: 57 and 58 (chain 1 CCAGGAAUCUGUCCUUCUUTT; chain 2 AAGAAGGACAGAUUCCUGGUU; chain 1: DNA at AGT, 2'-fluoro at CU, [invAb] at 5' end, 3' end, backbone not given here; chain 2: sugars from the 5' end rrrmmmmmfmmmfffffmmmm, backbone not given here)	90%	73%
25361-DC: STAT1 siNA duplex, human target site 1104; modified strands SEQ ID NO: 59 and 60 (chain 1 GCCCAAUGCUUGCUUGGAUTT; chain 2 AUCCAAGCAAGCAUUGGGCUU; chain 1: DNA at AGT, 2'-fluoro at CU, [invAb] at 5' end, 3' end, backbone not given here; chain 2: sugars from the 5' end rrrfmmmfmmmfmffmmmfmm, backbone not given here)	92%	35%
25362-DC: STAT1 siNA duplex, human target site 222; modified strands SEQ ID NO: 61 and 62 (chain 1 CUCGAGAGCUGUCUAGGUUTT; chain 2 AACCUAGACAGCUCUCGAGUU; chain 1: DNA at AGT, 2'-fluoro at CU, [invAb] at 5' end, 3' end, backbone not given here; chain 2: sugars from the 5' end rrrffmmmfmmfffffmmmmm, backbone not given here)	87%	45%
25363-DC: STAT1 siNA duplex, human target site 480; modified strands SEQ ID NO: 63 and 64 (chain 1 GGAGCACGCUGCCAAUGAUTT; chain 2 AUCAUUGGCAGCGUGCUCCUU; chain 1: DNA at AGT, 2'-fluoro at CU, [invAb] at 5' end, 3' end, backbone not given here; chain 2: sugars from the 5' end rrrmffmmfmmfmfmffffmm, backbone not given here)	83%	72%
25364-DC: STAT1 siNA duplex, human target site 674; modified strands SEQ ID NO: 65 and 66 (chain 1 GUCUGAAGGAAGAAAGGAATT; chain 2 UUCCUUUCUUCCUUCAGACUU; chain 1: sugars from the 5' end d1 f3 d17, [invAb] at 5' end, 3' end, backbone not given here; chain 2: sugars from the 5' end r3 f12 m3 f1 m2, backbone not given here)	88%	83%
25365-DC: STAT1 siNA duplex, human target site 431; modified strands SEQ ID NO: 67 and 68 (chain 1 CCAUGGAAAUCAGACAGUATT; chain 2 UACUGUCUGAUUUCCAUGGUU; chain 1: DNA at AGT, 2'-fluoro at CU, [invAb] at 5' end, 3' end, backbone not given here; chain 2: sugars from the 5' end rrrfmfffmmfffffmfmmmm, backbone not given here)	87%	80%
25366-DC: STAT1 siNA duplex, human target site 965; modified strands SEQ ID NO: 69 and 70 (chain 1 UGCUUGACAAUAAGAGAAATT; chain 2 UUUCUCUUAUUGUCAAGCAUU; chain 1: DNA at AGT, 2'-fluoro at CU, [invAb] at 5' end, 3' end, backbone not given here; chain 2: sugars from the 5' end rrrfffffmffmffmmmfmmm, backbone not given here)	88%	86%
